The Kinase Knowledgebase extract (Sharma et al. 2016)

Target: MAPK14 (human) (UniProt Q16539)
Assay: Inhibition of LPS Stimulated TNF Production by U937 Cells
Settings: for inhibition: concentration not given here

Chain of MAPK14 (human) (Q16539 whole entry, looked up): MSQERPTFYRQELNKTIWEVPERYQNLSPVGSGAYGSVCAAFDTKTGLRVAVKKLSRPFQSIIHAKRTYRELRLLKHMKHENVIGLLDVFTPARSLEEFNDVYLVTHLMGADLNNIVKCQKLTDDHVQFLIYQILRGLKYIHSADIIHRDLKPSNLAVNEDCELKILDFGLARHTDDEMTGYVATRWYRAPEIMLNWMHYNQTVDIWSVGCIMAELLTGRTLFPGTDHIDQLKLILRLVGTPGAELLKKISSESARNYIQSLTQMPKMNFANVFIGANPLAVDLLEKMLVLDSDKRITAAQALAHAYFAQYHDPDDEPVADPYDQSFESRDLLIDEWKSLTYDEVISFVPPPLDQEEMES

| inhibition [%] | IC50 [nM] | Structure (SMILES) |
| --- | --- | --- |
| 90 | – | C[C@H](NS(=O)(=O)c1cc(S(=O)(=O)c2ccccc2)cs1)c1[nH]nc(-c2ccc(F)cc2)c1-c1ccncc1 |
| 67 | – | C[C@@H](NC(=O)c1cc(F)ccc1F)c1[nH]nc(-c2ccc(F)cc2)c1-c1ccncc1 |
| 37 | – | O=S(=O)(NCc1[nH]nc(-c2ccc(F)cc2)c1-c1ccncc1)c1ccc(Cl)cc1 |
| 74 | – | C[C@H](NS(=O)(=O)c1cn(C)cn1)c1[nH]nc(-c2ccc(F)cc2)c1-c1ccncc1 |
| 95 | – | C[C@@H](NS(=O)(=O)c1ccc(Cl)s1)c1[nH]nc(-c2ccc(F)cc2)c1-c1ccncc1 |
| 21 | – | C[C@H](NC(=O)c1cccc(Br)c1)c1[nH]nc(-c2ccc(F)cc2)c1-c1ccncc1 |
| 36 | – | Cc1ccc(C)c(S(=O)(=O)NCCCc2[nH]nc(-c3ccc(F)cc3)c2-c2ccncc2)c1 |
| – | 141 | Fc1ccc(-c2n[nH]cc2-c2ccnc(NCc3cccc(F)c3)c2)cc1 |
| 29 | – | C[C@H](NC(=O)N[C@@H](C)c1[nH]nc(-c2ccc(F)cc2)c1-c1ccncc1)c1ccccc1 |
| 28 | – | COc1ccc(CC(=O)N[C@H](C)c2[nH]nc(-c3ccc(F)cc3)c2-c2ccncc2)cc1OC |
| 9 | – | O=C(NCCc1ccccc1)NCc1[nH]nc(-c2ccc(F)cc2)c1-c1ccncc1 |
| – | 583 | OCCn1cc(-c2ccnc(CCc3ccc(F)cc3)c2)c(-c2ccc(F)cc2)n1 |
| – | 4.4 | CC(Nc1cc(-c2c[nH]nc2-c2ccc(F)cc2)ccn1)c1ccc(F)cc1 (configuration not stated) |
| – | 640 | C[C@@H](NC(=O)c1ccccc1C(F)(F)F)c1[nH]nc(-c2ccc(F)cc2)c1-c1ccncc1 |
| – | 97.3 | OCCCNc1cc(-c2c[nH]nc2-c2ccc(F)cc2)ccn1 |
| – | 298 | N#Cc1cc(-c2c[nH]nc2-c2ccc(F)cc2)ccn1 |
| 24 | – | COc1ccc(OC)c(S(=O)(=O)N2CCC(c3[nH]nc(-c4ccc(F)cc4)c3-c3ccncc3)CC2)c1 |
| 92 | – | CCc1ccc(S(=O)(=O)N[C@@H](C)c2[nH]nc(-c3ccc(F)cc3)c2-c2ccncc2)cc1 |
| 21 | – | C[C@H](NC(=O)c1cccs1)c1[nH]nc(-c2ccc(F)cc2)c1-c1ccncc1 |
| 10 | – | O=C(NCc1[nH]nc(-c2ccc(F)cc2)c1-c1ccncc1)Nc1ccc(C(F)(F)F)cc1 |
| 31 | – | O=C(NCc1[nH]nc(-c2ccc(F)cc2)c1-c1ccncc1)c1ccc(Cl)c(Cl)c1 |
| 51 | – | C[C@H](NC(=O)N(C)c1ccccc1)c1[nH]nc(-c2ccc(F)cc2)c1-c1ccncc1 |

| inhibition [%] | IC50 [nM] | Structure (SMILES) |
| --- | --- | --- |
| 3 | – | C[C@H](NC(=O)c1cc(Cl)cc(Cl)c1)c1[nH]nc(-c2ccc(F)cc2)c1-c1ccncc1 |
| 20 | – | C[C@H](NC(=O)[C@H]1CCCN1)c1[nH]nc(-c2ccc(F)cc2)c1-c1ccncc1 |
| – | 29 | CCCc1n[nH]c(-c2cccc(C)c2)c1-c1ccncc1 |
| 98 | – | C[C@@H](NS(=O)(=O)c1ccc(Cl)c(Cl)c1)c1[nH]nc(-c2ccc(F)cc2)c1-c1ccncc1 |
| – | 198 | OCCn1cc(-c2ccncc2)c(-c2ccc(F)cc2)n1 |
| – | > 1000 | O=C(N[C@H](Cc1ccccc1)c1[nH]nc(-c2ccc(F)cc2)c1-c1ccncc1)C1CC1 |
| – | 1250 | O=C(COc1ccc(Cl)cc1)NCc1[nH]nc(-c2ccc(F)cc2)c1-c1ccncc1 |
| 70 | – | C[C@@H](NS(=O)(=O)c1ccccc1C(F)(F)F)c1[nH]nc(-c2ccc(F)cc2)c1-c1ccncc1 |
| 25 | > 1000 | O=C(N[C@H](Cc1ccccc1)c1[nH]nc(-c2ccc(F)cc2)c1-c1ccncc1)c1ccccc1C(F)(F)F |
| – | > 1000 | CNC(=O)CC[C@H](NC(=O)c1ccccc1F)c1[nH]nc(-c2ccc(F)cc2)c1-c1ccncc1 |
| – | 2170 | O=S(=O)(NCc1[nH]nc(-c2ccc(F)cc2)c1-c1ccncc1)c1ccc(F)cc1F |
| 88 | – | C[C@H](NS(=O)(=O)c1ccc(Cl)cc1Cl)c1[nH]nc(-c2ccc(F)cc2)c1-c1ccncc1 |
| – | 477 | COc1cccc(-c2[nH]nc(C)c2-c2ccncc2)c1 |
| 15 | – | O=C(NCc1[nH]nc(-c2ccc(F)cc2)c1-c1ccncc1)c1ccc(Cl)nc1 |
| 29 | – | COc1ccc(CC(=O)N[C@H](C)c2[nH]nc(-c3ccc(F)cc3)c2-c2ccncc2)cc1 |
| – | 500 | C#CCn1cc(-c2ccncc2)c(-c2ccc(F)cc2)n1 |
| – | > 1000 | NS(=O)(=O)c1ccc(CNC(=O)NCCCc2[nH]nc(-c3ccc(F)cc3)c2-c2ccncc2)cc1 |
| 87 | – | Cc1cc(C)c(S(=O)(=O)N[C@@H](C)c2[nH]nc(-c3ccc(F)cc3)c2-c2ccncc2)c(C)c1 |
| 18 | – | CN(C)S(=O)(=O)NCc1[nH]nc(-c2ccc(F)cc2)c1-c1ccncc1 |
| – | 417 | c1cc(-c2c[nH]nc2-c2ccc3c(c2)OCO3)ccn1 |
| 48 | – | CCOC(=O)NCc1[nH]nc(-c2ccc(F)cc2)c1-c1ccncc1 |
| 12 | – | C[C@@H](NC(=O)C1CCCC1)c1[nH]nc(-c2ccc(F)cc2)c1-c1ccncc1 |

| inhibition [%] | IC50 [nM] | Structure (SMILES) |
| --- | --- | --- |
| – | > 1000 | CN(C)CCCNC(=O)NCCCc1[nH]nc(-c2ccc(F)cc2)c1-c1ccncc1 |
| – | 3920 | O=[N+]([O-])c1cccc(S(=O)(=O)NCc2[nH]nc(-c3ccc(F)cc3)c2-c2ccncc2)c1 |
| – | 1400 | Cn1nc(-c2ccc(F)cc2)c(-c2ccncc2)c1Br |
| 55 | – | C[C@@H](NS(=O)(=O)c1ccc(F)cc1F)c1[nH]nc(-c2ccc(F)cc2)c1-c1ccncc1 |
| – | 543 | Fc1ccc(-c2n[nH]cc2-c2ccnc(NC3CCN(Cc4ccccc4)CC3)c2)cc1 |
| 55 | – | O=C(NCc1[nH]nc(-c2ccc(F)cc2)c1-c1ccncc1)[C@@H]1CCCN1C(=O)OCC1c2ccccc2-c2ccccc21 |
| 18 | – | C[C@@H](NS(=O)(=O)C(F)(F)F)c1[nH]nc(-c2ccc(F)cc2)c1-c1ccncc1 |
| 95 | – | C[C@H](NS(=O)(=O)c1ccc(C#N)cc1)c1[nH]nc(-c2ccc(F)cc2)c1-c1ccncc1 |
| 32 | – | CC(C)COC(=O)N[C@H](C)c1[nH]nc(-c2ccc(F)cc2)c1-c1ccncc1 |
| – | 480 | O=S(=O)(NCCCc1[nH]nc(-c2ccc(F)cc2)c1-c1ccncc1)c1ccccc1Br |
| 20 | – | O=C(NCCc1[nH]nc(-c2ccc(F)cc2)c1-c1ccncc1)c1cnc2ccccc2n1 |
| 75 | – | C[C@@H](NS(=O)(=O)c1c(Cl)cccc1Cl)c1[nH]nc(-c2ccc(F)cc2)c1-c1ccncc1 |
| 32 | – | C[C@H](NC(=O)c1cccc(F)c1F)c1[nH]nc(-c2ccc(F)cc2)c1-c1ccncc1 |
| 2 | – | CN(C)c1cccc2c(S(=O)(=O)NCc3[nH]nc(-c4ccc(F)cc4)c3-c3ccncc3)cccc12 |
| 54 | – | C[C@H](NC(=O)N(C)C)c1[nH]nc(-c2ccc(F)cc2)c1-c1ccncc1 |
| 93 | – | C[C@H](NS(=O)(=O)c1cccc(Cl)c1)c1[nH]nc(-c2ccc(F)cc2)c1-c1ccncc1 |
| 6 | – | O=S(=O)(NCc1[nH]nc(-c2ccc(F)cc2)c1-c1ccncc1)c1cc(Cl)cc(Cl)c1O |
| 21 | – | CC(C)=CC(=O)N[C@@H](C)c1[nH]nc(-c2ccc(F)cc2)c1-c1ccncc1 |
| 22 | – | O=C(NCc1[nH]nc(-c2ccc(F)cc2)c1-c1ccncc1)c1cccc(OC(F)(F)F)c1 |
| 2 | – | O=C(N[C@H](Cc1ccccc1)c1[nH]nc(-c2ccc(F)cc2)c1-c1ccncc1)[C@H]1CCCN1 |
| 91 | – | C[C@@H](NS(=O)(=O)c1cc(Cl)cc(Cl)c1)c1[nH]nc(-c2ccc(F)cc2)c1-c1ccncc1 |
| 52 | – | CC(C)NC(=O)N[C@H](C)c1[nH]nc(-c2ccc(F)cc2)c1-c1ccncc1 |
